Assay results: patent US20240294550A1, “8-OXA-3-AZABICYCLO[3.2.1]OCTANE COMPOUNDS OR SALT THEREOF, AND PREPARATION METHOD AND USE THEREOF” (LITTDD MEDICINES LTD, priority 2021, published 2024)
Like-named read-outs stand apart in the source and are kept apart here.

Columns and labels:
LOVO cells = test: Cell proliferation assay (CellTiter-Glo); format: cell-based; conditions: Homo sapiens, 96 hours
Experimental: The cell proliferation inhibition effect of the compound of the invention was tested using CellTiter-Glo™ cell viability assay kit. This kit uses luciferase as the detector. During the luminescence process, the luciferase requires the participation of ATP. CellTiter-Glo™ reagent was added to the cell culture medium, and the luminescence value was measured. The light signal is proportional to the amount of ATP present in the system, and ATP positively correlates with the number of viable cells present, thus the cell proliferation activity is measured.
Cell culture and seeding: LOVO cells in logarithmic growth phase (human colon carcinoma cells) (ATCC CCL-229) were harvested and counted using a platelet counter. Trypan blue exclusion method was used to detect the cell viability to ensure that the cell viability was above 90%. 90 μL of cell suspension (RPMI1640+10% fetal bovine serum) was added to a 96-well transparent flat-bottom black-wall plate (Thermo, 165305) respectively, and the cell concentration was adjusted to 3000/well/90 μl. Cells in the 96-well plate were incubated overnight at 37° C., 5% CO2 with 95% humidity (Thermo, Model 3100 Series).
Firstly, DMSO was used as the solvent to prepare 10 mM mother solution of the test compounds, and then PBS was used to dilute 100 times to prepare a solution of 10 times of final concentration, the highest concentration was 100 μM. 10 μL solution of the test compounds was added to each well of the 96 well plate inoculated with cells, namely the solution was further diluted 10 times to reach the final concentration of 10 μM. Starting from 10 μM, the final concentration of the test compound was 3-fold serially diluted, with 9 concentrations in total with 3 triplicates for each concentration. The 96 well plates with the test compounds and cells were incubated at 37° C., 5% CO2 and 95% humidity for 96 hours, and then CellTiter Glo analysis was performed.
CellTiter-Glo Reagents (CellTiter Glo R Luminescent Cell Viability Assay, Promega, G7572) were melted and the 96-well plates were equilibrated to room temperature for 30 minutes. An equal volume of CellTiter-Glo solution was added to each well, and the cells were lysed by shaking on the fixed orbit shaker for 5 minutes. The assay plates were left at room temperature for 20 minutes to stabilize the luminescence signal, and the luminescence signals were read using the SpectraMax multi-labeled microplate detector (MD, M3).
Data were analyzed using GraphPad Prism 7.0 software, fitted with non-linear S-curve regression to derive the dose-response curves, and IC50 values were calculated therefrom.
Cell survival rate (%)=(LumDrug to be tested−LumCulture medium control)/(LumCell control−LumCulture medium control)×100%

[1] = Metabolic stability in human liver microsomes; format: in vitro ADME
Experimental: Drug-like Properties: Concepts, Structure Design and Methods: from ADME to Toxicity Optimization. […] Screen. […] After incubation for appropriate time (such as 5, 10, 20, 30 and 60 minutes), samples were collected, and an appropriate termination solution (glacial acetonitrile containing 200 ng/mL tolbutamide and 200 ng/mL labetalol (i.e. acetonitrile at 4° C.)) was added to stop the reaction. Sample treatment (n=1): each appropriate sample was added, vortexed and centrifuged at high speed. The supernatants were collected, and detected the substrate by HPLC-MS/MS. The peak area at the 0 min was set as 100%. The peak areas at other time points were converted to percentages of the remaining amount. The natural logarithms of the percentage of remaining amount at each time point was plotted against the incubation time, and the slope (−k) was calculated. Then, Clint (μL/min/mg) and half-life (T½, min) of the compounds were calculated following the equation: Inherent clearance rate (Clint)=(k*Volume of incubation solution)/Mass of liver microsomes.

[2] = Pharmacokinetic (PK) assay in mice; format: in vivo; conditions: CD-1 mice; for AUC(0-t): read-out: AUC0-24 h
Experimental: The PK of each compound was determined as follows: 6 CD-1 mice (obtained from Shanghai Lingchang Biotechnology Co., Ltd.) were divided into two groups, 3 mice in each group. […] Blood samples were collected from saphenous vein of lower leg in each group at 0, 0.083, 0.25, 0.5, 1, 2, 4, 6, 8 and 24 h after administration. Approximately 40 μL of the blood samples were collected in anticoagulant tubes containing EDTA-K2. Immediately after collection, the tubes were inverted at least 5 times to ensure adequate mixing, and then placed on ice. The blood samples collected at each time point were centrifuged at 4° C., 8000 rpm for 5 minutes to obtain plasma. Another 1.5 mL centrifuge tube was marked with the compound name, animal number, and time point, and the plasma was transferred to this tube. The plasma was stored at −80° C. until analysis.
Compound concentrations in plasma were determined by UPLC-MS/MS method, and the pharmacokinetic parameters were calculated by Phoenix WinNolin 6.4 pharmacokinetic software on the obtained data.

IC50 (LOVO cells): 304 nM | half-life at 1 μM ([1]; 1 μM compound): 1.97 h | Remain % (T = 60 min) ([1]; T = 60 min): 65.0% | microsomal CLint at 1 μM ([1]; read-out: CLint(mic)): 11.7 µL/min/mg | CL_obs ([2]; IV dose 1 mg/kg): 18.3 mL/min/kg | half-life ([2]; mouse, plasma, IV dose 1 mg/kg): 1.51 h | Vd ([2]; mouse, plasma, IV dose 1 mg/kg, read-out: Vss): 1.68 L/kg | half-life ([2]; mouse, plasma, Po dose 5 mg/kg): 2.57 h | bioavailability ([2]; mouse, plasma, Po dose 5 mg/kg vs IV dose 1 mg/kg): 75.6% | C0 ([2]; mouse, IV dose 1 mg/kg, plasma): 823 ng/mL | AUC(0-t) ([2]; mouse, IV dose 1 mg/kg, plasma): 925 ng·h/mL | Cmax ([2]; mouse, Po dose 5 mg/kg, plasma): 1080 ng/mL | AUC(0-t) ([2]; mouse, Po dose 5 mg/kg, plasma): 3440 ng·h/mL
SMILES: C[C@@H]1COCCN1c1cc(N2CC3CCC(C2)O3)nc2c(-c3cc[nH]n3)cnn12 [Example 1, 3-(7-((R)-3-methylmorpholino)-3-(1H-pyrazol-3-yl)pyrazolo[1,5-a]pyrimidin-5-yl)-8-oxa-3-azabicyclo[3.2.1]octane]
